Assay results taken from US20250302813A1, “RECOMBINANT METHIONINASE IN THE TREATMENT OF CANCER” (ANTICANCER INC, priority 2024, published 2025).
Where two headings read alike, the source gives them in different places.

Tests used:
[1] = tested on: human colorectal cancer cell line; conditions: in vitro; cited from earlier work
[2] = patients; oral regorafenib; cited from earlier work
[3] = tested on: HCT-116 human colon cancer cell line; assay: Cell viability testing of HCT-116 cells (Cell Counting Kit-8, WST-8 reagent); type: cell-based; conditions: for IC50: Homo sapiens
Description: Cell culture: The HCT-116 human colon cancer cell line was acquired from the American Type Culture Collection (Manassas, VA, USA). The cells were grown in Dulbecco's […] medium (DMEM) with 10% fetal bovine serum and 100 IU/ml of penicillin/streptomycin.
Cell viability testing: HCT-116 cells were cultivated at subconfluence overnight in Dulbecco's modified Eagle's medium in 96-well plates (1.0×10^3 cells per well). The following day, HCT-116 cells were treated with concentrations of rMETase ranging from 0.125 to 8 U/ml or regorafenib ranging from 0.25 μM to 16 μM. Regorafenib was purchased from MedChemExpress (Monmouth Junction, NJ, USA). After 72 h of treatment, cell viability was assessed using the Cell Counting Kit-8 (Dojindo Laboratory, Kumamoto, Japan) with the WST-8 reagent.
ImageJ version 1.53 (National Institutes of Health, Bethesda, MD, USA) was applied to calculate IC50 values and sensitivity curves. After calculating the half-maximal inhibitory concentration (IC50) for rMETase and regorafenib, the […]. concentrations of both drugs were used to determine the synergistic efficacy of the combination of the drugs. Finally, the IC50 study was repeated for regorafenib on HCT-116 cells treated in combination with the IC50 concentration of rMETase to examine whether methionine restriction increased the efficacy of regorafenib. Each experiment was carried out in triplicate.
Statistics: GraphPad Prism 9.4.0 (GraphPad Software, Inc., San Diego, CA, USA) was used to conduct all statistical analyses. Tukey's multiple comparison test was performed for the parametric test of comparison between groups. All data are presented as the mean and standard deviation. The significance level was p≤0.05.

IC50 ([3]; HCT-116, 72 h, addition of rMETase at 0.61 U/ml (its IC50), 72 h, WST-8, read-out: IC50 of regorafenib in combination with rMETase)	IC50 ([3]; HCT-116, 72 h, regorafenib alone, 72 h treatment, WST-8, read-out: IC50 of regorafenib on HCT-116 cells)	IC50 ([3]; HCT-116, regorafenib alone, read-out: IC50 of regorafenib alone on HCT-116 cells (printed in U/ml))	IC50 of rMETase on HCT-116 cells ([3]; rMETase alone, 72 h treatment, WST-8)	Compound	Increase of intracellular S-adenosyl-L-methionine (SAM) level compared to the control [1]	Time to appearance of toxicity after the start of treatment (severe skin rash, diarrhea, hypertension, fatigue) [2]
1460 nM	2200 nM	2260 nM	–	CNC(=O)c1cc(Oc2ccc(NC(=O)Nc3ccc(Cl)c(C(F)(F)F)c3)c(F)c2)ccn1 [regorafenib, 4-[4-[[4-chloro-3-(trifluoromethyl)phenyl]carbamoylamino]-3-fluorophenoxy]-N-methylpyridine-2-carboxamide]	34.5%	3 to 4 days
–	–	–	0.61 U/ml	rMETase: recombinant methioninase produced by fermentation of recombinant Escherichia coli transformed with the methioninase gene from Pseudomonas putida	–	–
